Where “and” joins values, the source holds several entries; their conditions need not be identical. Equal values may be shown once.
Tested on: A875 shp75 cells
Test: Wound healing cell motility assay, A875 shp75
Type: cell-based, human
Conditions: for Wound area, n1-n3 / Wound area, Mean: 10μM Div17E5; for Wound area, Mean: N=3
Protocol: For wound healing assay, cells were grown until confluency and subjected to a wound across the cell mono-layer. Cells were then incubated with serum-free media either with DMSO or a small molecule (with or without 5 µM Q_VD_poH) and imaged at specific time-points. Cell migration is reflected as fold change in wound area over time.

## Oc1ccc(-c2cncc(Nc3ccc(Br)c(Cl)c3)n2)cc1 [Div17E5]
15 hours
  Wound area, n1-n3: 0.930 Fold and 0.849 Fold and 0.852 Fold
  Wound area, Mean: 0.877 Fold
18 hours
  Wound area, n1-n3: 0.858 Fold and 0.787 Fold and 0.795 Fold
  Wound area, Mean: 0.813 Fold
21 hours
  Wound area, n1-n3: 0.855 Fold and 0.772 Fold and 0.767 Fold
  Wound area, Mean: 0.798 Fold
24 hours
  Wound area, n1-n3: 0.867 Fold and 0.765 Fold and 0.792 Fold
  Wound area, Mean: 0.808 Fold
A875 shp75, 1uM, 0 h, Mean
  Wound area (Fold): 1.000 Fold
A875 shp75, 1uM, 0 h, n1
  Wound area (Fold): 0.980 Fold
A875 shp75, 1uM, 0 h, n2
  Wound area (Fold): 1.053 Fold
A875 shp75, 1uM, 0 h, n3
  Wound area (Fold): 0.966 Fold
A875 shp75, 1uM, 3 h, Mean
  Wound area (Fold): 0.957 Fold
A875 shp75, 1uM, 3 h, n1
  Wound area (Fold): 0.947 Fold
A875 shp75, 1uM, 3 h, n2
  Wound area (Fold): 0.963 Fold
A875 shp75, 1uM, 3 h, n3
  Wound area (Fold): 0.960 Fold
A875 shp75, 1uM, 6 h, Mean
  Wound area (Fold): 0.921 Fold
A875 shp75, 1uM, 6 h, n1
  Wound area (Fold): 0.914 Fold
A875 shp75, 1uM, 6 h, n2
  Wound area (Fold): 0.924 Fold
A875 shp75, 1uM, 6 h, n3
  Wound area (Fold): 0.923 Fold
A875 shp75, 1uM, 9 h, Mean
  Wound area (Fold): 0.898 Fold
A875 shp75, 1uM, 9 h, n1
  Wound area (Fold): 0.889 Fold
A875 shp75, 1uM, 9 h, n2
  Wound area (Fold): 0.905 Fold
A875 shp75, 1uM, 9 h, n3
  Wound area (Fold): 0.901 Fold
A875 shp75, 1uM, 12 h, Mean
  Wound area (Fold): 0.873 Fold
A875 shp75, 1uM, 12 h, n1
  Wound area (Fold): 0.869 Fold
A875 shp75, 1uM, 12 h, n2
  Wound area (Fold): 0.870 Fold
A875 shp75, 1uM, 12 h, n3
  Wound area (Fold): 0.881 Fold
A875 shp75, 1uM, 15 h, Mean
  Wound area (Fold): 0.847 Fold
A875 shp75, 1uM, 15 h, n1
  Wound area (Fold): 0.839 Fold
A875 shp75, 1uM, 15 h, n2
  Wound area (Fold): 0.841 Fold
A875 shp75, 1uM, 15 h, n3
  Wound area (Fold): 0.861 Fold
A875 shp75, 1uM, 18 h, Mean
  Wound area (Fold): 0.821 Fold
A875 shp75, 1uM, 18 h, n1
  Wound area (Fold): 0.821 Fold
A875 shp75, 1uM, 18 h, n2
  Wound area (Fold): 0.823 Fold
A875 shp75, 1uM, 18 h, n3
  Wound area (Fold): 0.820 Fold
A875 shp75, 1uM, 21 h, Mean
  Wound area (Fold): 0.792 Fold
A875 shp75, 1uM, 21 h, n1
  Wound area (Fold): 0.780 Fold
A875 shp75, 1uM, 21 h, n2
  Wound area (Fold): 0.797 Fold
A875 shp75, 1uM, 21 h, n3
  Wound area (Fold): 0.800 Fold
A875 shp75, 1uM, 24 h, Mean
  Wound area (Fold): 0.773 Fold
A875 shp75, 1uM, 24 h, n1
  Wound area (Fold): 0.775 Fold
A875 shp75, 1uM, 24 h, n2
  Wound area (Fold): 0.773 Fold
A875 shp75, 1uM, 24 h, n3
  Wound area (Fold): 0.771 Fold
A875 shp75, 2uM, 0 h, Mean
  Wound area (Fold): 1.000 Fold
A875 shp75, 2uM, 0 h, n1
  Wound area (Fold): 1.055 Fold
A875 shp75, 2uM, 0 h, n2
  Wound area (Fold): 0.891 Fold
A875 shp75, 2uM, 0 h, n3
  Wound area (Fold): 1.054 Fold
A875 shp75, 2uM, 3 h, Mean
  Wound area (Fold): 0.908 Fold
A875 shp75, 2uM, 3 h, n1
  Wound area (Fold): 0.882 Fold
A875 shp75, 2uM, 3 h, n2
  Wound area (Fold): 0.921 Fold
A875 shp75, 2uM, 3 h, n3
  Wound area (Fold): 0.922 Fold
A875 shp75, 2uM, 6 h, Mean
  Wound area (Fold): 0.857 Fold
A875 shp75, 2uM, 6 h, n1
  Wound area (Fold): 0.826 Fold
A875 shp75, 2uM, 6 h, n2
  Wound area (Fold): 0.869 Fold
A875 shp75, 2uM, 6 h, n3
  Wound area (Fold): 0.877 Fold
A875 shp75, 2uM, 9 h, Mean
  Wound area (Fold): 0.836 Fold
A875 shp75, 2uM, 9 h, n1
  Wound area (Fold): 0.818 Fold
A875 shp75, 2uM, 9 h, n2
  Wound area (Fold): 0.854 Fold
A875 shp75, 2uM, 9 h, n3
  Wound area (Fold): 0.836 Fold
A875 shp75, 2uM, 12 h, Mean
  Wound area (Fold): 0.798 Fold
A875 shp75, 2uM, 12 h, n1
  Wound area (Fold): 0.793 Fold
A875 shp75, 2uM, 12 h, n2
  Wound area (Fold): 0.807 Fold
A875 shp75, 2uM, 12 h, n3
  Wound area (Fold): 0.794 Fold
A875 shp75, 2uM, 15 h, Mean
  Wound area (Fold): 0.786 Fold
A875 shp75, 2uM, 15 h, n1
  Wound area (Fold): 0.790 Fold
A875 shp75, 2uM, 15 h, n2
  Wound area (Fold): 0.776 Fold
A875 shp75, 2uM, 15 h, n3
  Wound area (Fold): 0.791 Fold
A875 shp75, 2uM, 18 h, Mean
  Wound area (Fold): 0.750 Fold
A875 shp75, 2uM, 18 h, n1
  Wound area (Fold): 0.749 Fold
A875 shp75, 2uM, 18 h, n2
  Wound area (Fold): 0.742 Fold
A875 shp75, 2uM, 18 h, n3
  Wound area (Fold): 0.760 Fold
A875 shp75, 2uM, 21 h, Mean
  Wound area (Fold): 0.731 Fold
A875 shp75, 2uM, 21 h, n1
  Wound area (Fold): 0.738 Fold
A875 shp75, 2uM, 21 h, n2
  Wound area (Fold): 0.705 Fold
A875 shp75, 2uM, 21 h, n3
  Wound area (Fold): 0.751 Fold
A875 shp75, 2uM, 24 h, Mean
  Wound area (Fold): 0.700 Fold
A875 shp75, 2uM, 24 h, n1
  Wound area (Fold): 0.699 Fold
A875 shp75, 2uM, 24 h, n2
  Wound area (Fold): 0.661 Fold
A875 shp75, 2uM, 24 h, n3
  Wound area (Fold): 0.739 Fold

— publication PMC12514245, “Impaired migration and lung invasion of human melanoma by a novel small molecule targeting the transmembrane domain of death receptor p75^NTR” (EMBO Molecular Medicine, 2025)
